Reference: patent US10414811B2, “Protease-resistant lipidated GLP-1 analogs” (MEDIMMUNE LIMITED, priority 2015, dated 2019)
Like-named read-outs stand apart in the source and are kept apart here. Numbered stars: 1 amine (or outer) side, 2 acyl side, 3 side chain; on linkers, the order of the positions; unused ones are H or OH. Square brackets hold non-standard residues; d marks the D form. Side chains are listed from the residue outwards. Peptide text beside a SMILES is read from it. * marks the point of attachment. C18 diacid = O=C(O)CCCCCCCCCCCCCCCCC(=O)*; γGlu = O=C(O)[C@H](CCC(=O)[*:2])N[*:1]; Palmitoyl = CCCCCCCCCCCCCCCC(=O)*; αMeF = C[C@](N)(Cc1ccccc1)C(=O)O; αMeK = C[C@](N)(CCCCN)C(=O)O; αMeS = C[C@](N)(CO)C(=O)O; AEEA = NCCOCCOCC(=O)O; Aib = CC(C)(N)C(=O)O

Key:
Type in all cases: cell-based
[1] = target: T1, human GLP-1 receptor (GLP-1R) (Homo sapiens, UniProt P43220); experiment: cAMP assay, human GLP-1R cells
T1 construct: expressed in transfected cells
In short: (§1)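 Peptide-stimulated cAMP measured by two-step HTRF after a 30 min room-temperature incubation with receptor-expressing cells (hGLP-1R, hGIPR at 1×10^5 cells/ml; hGCGR at 2×10^5 cells/ml). Duplicate dilutions; EC50 from 4-parameter logistic fit of % Delta F.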

[2] = target: T2, human glucagon receptor (GCGR) (Homo sapiens, UniProt P47871); experiment: cAMP assay, human GCGR cells; conditions: cAMP assay
T2 construct: expressed in transfected cells
In short: as §1

[3] = target: T3, human glucose-dependent insulinotropic peptide receptor (GIPR) (Homo sapiens, UniProt P48546); experiment: cAMP assay, human GIPR cells; conditions: cAMP assay
T3 construct: expressed in transfected cells
T3 sequence (P48546 22-466): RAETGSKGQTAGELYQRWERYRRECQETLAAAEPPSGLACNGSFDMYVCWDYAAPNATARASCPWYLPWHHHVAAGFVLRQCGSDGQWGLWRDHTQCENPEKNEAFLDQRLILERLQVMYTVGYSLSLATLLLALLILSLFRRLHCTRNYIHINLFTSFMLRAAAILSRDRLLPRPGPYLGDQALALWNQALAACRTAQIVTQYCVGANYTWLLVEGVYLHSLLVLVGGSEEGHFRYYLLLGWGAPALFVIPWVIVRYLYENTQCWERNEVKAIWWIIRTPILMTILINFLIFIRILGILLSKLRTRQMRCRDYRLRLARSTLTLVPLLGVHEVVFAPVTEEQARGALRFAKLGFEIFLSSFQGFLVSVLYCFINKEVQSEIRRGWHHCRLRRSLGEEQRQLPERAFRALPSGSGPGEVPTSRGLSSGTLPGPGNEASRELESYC
In short: as §1

GLP-1R (INS1e assay) = target: T4, GLP-1R (INS1e assay) (Rattus norvegicus, UniProt P32301); experiment: INS1e assay, cAMP activity at GLP-1R; conditions: mono-lipidated peptides
T4 construct: endogenous in cells; host or cells: INS-1E cells
T4 sequence (P32301 22-463): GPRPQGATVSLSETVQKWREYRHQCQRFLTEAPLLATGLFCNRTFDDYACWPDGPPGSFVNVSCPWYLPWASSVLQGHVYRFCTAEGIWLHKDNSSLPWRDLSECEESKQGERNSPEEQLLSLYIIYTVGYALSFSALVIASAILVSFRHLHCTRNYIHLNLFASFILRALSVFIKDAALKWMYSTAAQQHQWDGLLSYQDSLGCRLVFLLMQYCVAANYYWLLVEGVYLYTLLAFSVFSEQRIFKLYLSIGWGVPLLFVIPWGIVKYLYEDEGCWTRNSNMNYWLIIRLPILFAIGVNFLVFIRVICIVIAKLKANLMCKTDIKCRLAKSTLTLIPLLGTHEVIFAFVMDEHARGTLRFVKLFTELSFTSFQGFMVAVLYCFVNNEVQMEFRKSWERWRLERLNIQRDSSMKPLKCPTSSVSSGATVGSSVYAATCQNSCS
In short: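 cAMP was quantified by two-step HTRF, using anti-cAMP cryptate donor and cAMP-d2 acceptor, each diluted 1/20 in conjugate and lysis buffer. EC50 values of the synthetic peptides were derived from the cAMP readout.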

[4] = cAMP assay, second determination (n2), read-out: Primary assay EC50 GLP-1R n2
[5] = first determination (n1), read-out: Primary assay EC50 Gluc-R (n1)
[6] = second determination (n2), read-out: Primary assay EC50 Gluc-R (n2)
[7] = first determination (n1), read-out: Primary assay EC50 GIP-R (n1)
[8] = second determination (n2), read-out: Primary assay EC50 GIP-R (n2)
[9] = mean of n1 and n2, read-out: INS1e assay EC50 Mean pM GLP-1R
[10] = replicate n1, read-out: INS1e assay EC50 GLP-1R n1
[11] = replicate n2, read-out: INS1e assay EC50 GLP-1R n2
[12] = cAMP assay, first determination (n1), read-out: Primary assay EC50 GLP-1R n1
[13] = mean of n1 and n2, read-out: Mean pM GLP-1R

T2 sequence (P47871 26-477): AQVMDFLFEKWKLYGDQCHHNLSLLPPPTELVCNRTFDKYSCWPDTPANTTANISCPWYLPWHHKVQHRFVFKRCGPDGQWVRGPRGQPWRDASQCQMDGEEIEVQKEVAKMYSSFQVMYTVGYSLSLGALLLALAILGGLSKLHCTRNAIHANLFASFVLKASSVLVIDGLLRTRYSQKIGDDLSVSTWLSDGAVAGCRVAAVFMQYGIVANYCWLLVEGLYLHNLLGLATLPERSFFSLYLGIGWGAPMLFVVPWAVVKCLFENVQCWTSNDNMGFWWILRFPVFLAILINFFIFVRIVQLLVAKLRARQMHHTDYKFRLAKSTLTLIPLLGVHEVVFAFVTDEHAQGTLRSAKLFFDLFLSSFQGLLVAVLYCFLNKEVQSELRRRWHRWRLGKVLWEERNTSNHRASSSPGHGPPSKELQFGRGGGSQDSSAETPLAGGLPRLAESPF
T1 sequence (P43220 24-463): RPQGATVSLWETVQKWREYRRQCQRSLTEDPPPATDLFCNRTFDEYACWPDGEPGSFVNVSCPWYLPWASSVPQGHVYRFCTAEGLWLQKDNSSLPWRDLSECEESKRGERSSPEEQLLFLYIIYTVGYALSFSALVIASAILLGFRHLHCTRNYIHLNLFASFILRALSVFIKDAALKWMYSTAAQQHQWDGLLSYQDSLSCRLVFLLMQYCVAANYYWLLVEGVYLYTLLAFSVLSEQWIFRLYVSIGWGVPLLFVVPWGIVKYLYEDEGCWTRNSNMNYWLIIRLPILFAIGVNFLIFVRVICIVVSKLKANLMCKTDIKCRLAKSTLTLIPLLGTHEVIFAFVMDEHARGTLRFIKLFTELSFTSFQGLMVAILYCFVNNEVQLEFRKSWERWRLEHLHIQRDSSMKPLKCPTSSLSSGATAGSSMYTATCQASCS

| SMILES | EC50 [1, 4] | EC50 [2, 5] | EC50 [2, 6] | EC50 [3, 7] | EC50 [3, 8] | EC50 (GLP-1R (INS1e assay); [9]) | EC50 (GLP-1R (INS1e assay); [10]) | EC50 (GLP-1R (INS1e assay); [11]) | EC50 [1, 12] | EC50 [1, 13] | EC50 ([2]; Primary assay EC50 Gluc-R (n1), first determination (n1)) | EC50 ([2]; read-out: Primary assay EC50 Gluc-R (n2), second determination (n2)) | EC50 ([3]; Primary assay EC50 GIP-R (n1), first determination (n1)) | EC50 ([3]; read-out: Primary assay EC50 GIP-R (n2), second determination (n2)) |
| --- | --- | --- | --- | --- | --- | --- | --- | --- | --- | --- | --- | --- | --- | --- |
| CC[C@H](C)[C@H](NC(=O)[C@](C)(Cc1ccccc1)NC(=O)[C@H](CCC(=O)O)NC(=O)[C@](C)(CCCCN)NC(=O)[C@H](C)NC(=O)[C@H](C)NC(=O)[C@H](CCCCNC(=O)COCCOCCNC(=O)COCCOCCNC(=O)CC[C@H](NC(=O)CCCCCCCCCCCCCCCCC(=O)O)C(=O)O)NC(=O)CNC(=O)[C@H](CCC(=O)O)NC(=O)[C@H](CC(C)C)NC(=O)[C@](C)(Cc1ccccc1)NC(=O)[C@H](CO)NC(=O)[C@](C)(CO)NC(=O)[C@@H](NC(=O)[C@H](CC(=O)O)NC(=O)[C@H](CO)NC(=O)[C@@H](NC(=O)[C@](C)(Cc1ccccc1)NC(=O)[C@H](CO)NC(=O)CNC(=O)[C@H](CCC(=O)O)NC(=O)C(C)(C)NC(=O)[C@@H](N)Cc1c[nH]cn1)[C@@H](C)O)C(C)C)C(=O)N[C@@H](C)C(=O)N[C@@](C)(Cc1ccccc1)C(=O)N[C@H](C(=O)N[C@H](C(=O)N[C@@](C)(CCCCN)C(=O)NCC(=O)NCC(N)=O)C(C)C)C(C)C [compound 112] (H-H[Aib]EGS[αMeF]TSDV[αMeS]S[αMeF]LEGK([AEEA-AEEA-γGlu-C18 diacid])AA[αMeK]E[αMeF]IA[αMeF]VV[αMeK]GG-NH2; N-terminus assumed) | 5.07 pM | ≥ 25 nM | ≥ 25.4 nM | ≥ 25 nM | ≥ 25.4 nM | 385 pM | 294 pM | 476 pM |  |  |  |  |  |  |
| CCCCCCCCCCCCCCCC(=O)N[C@@H](CCC(=O)NCCCC[C@H](NC(=O)[C@](C)(CCCCN)NC(=O)[C@H](C)NC(=O)[C@H](C)NC(=O)[C@H](CCC(=O)O)NC(=O)CNC(=O)[C@H](CCC(=O)O)NC(=O)[C@H](CC(C)C)NC(=O)[C@](C)(Cc1ccccc1)NC(=O)[C@H](CO)NC(=O)[C@](C)(CO)NC(=O)[C@@H](NC(=O)[C@H](CC(=O)O)NC(=O)[C@H](CO)NC(=O)[C@@H](NC(=O)[C@](C)(Cc1ccccc1)NC(=O)[C@H](CO)NC(=O)CNC(=O)[C@H](CCC(=O)O)NC(=O)C(C)(C)NC(=O)[C@@H](N)Cc1c[nH]cn1)[C@@H](C)O)C(C)C)C(=O)N[C@@](C)(Cc1ccccc1)C(=O)N[C@H](C(=O)N[C@@H](C)C(=O)N[C@@](C)(Cc1ccccc1)C(=O)N[C@H](C(=O)N[C@H](C(=O)N[C@@](C)(CCCCN)C(=O)NCC(=O)NCC(N)=O)C(C)C)C(C)C)[C@@H](C)CC)C(=O)O [compound 79] (H-H[Aib]EGS[αMeF]TSDV[αMeS]S[αMeF]LEGEAA[αMeK]K([γGlu-Palmitoyl])[αMeF]IA[αMeF]VV[αMeK]GG-NH2) | 2.3 pM | ≥ 28 nM | ≥ 28 nM | ≥ 28 nM | ≥ 28 nM | 408 pM | 289 pM | 527 pM | 3.9 pM | 3.1 pM |  |  |  |  |
| CC[C@H](C)[C@H](NC(=O)[C@](C)(Cc1ccccc1)NC(=O)[C@H](CCC(=O)O)NC(=O)[C@H](CCCCNC(=O)CCCCCNC(=O)CCCCCNC(=O)CCCCCCCCCCCOc1ccc(C(=O)O)cc1)NC(=O)[C@H](C)NC(=O)[C@H](C)NC(=O)[C@H](CCC(=O)O)NC(=O)CNC(=O)[C@H](CCC(=O)O)NC(=O)[C@H](CC(C)C)NC(=O)[C@](C)(Cc1ccccc1)NC(=O)[C@H](CO)NC(=O)[C@](C)(CO)NC(=O)[C@@H](NC(=O)[C@H](CC(=O)O)NC(=O)[C@H](CO)NC(=O)[C@@H](NC(=O)[C@](C)(Cc1ccccc1)NC(=O)[C@H](CO)NC(=O)CNC(=O)[C@H](CCC(=O)O)NC(=O)C(C)(C)NC(=O)[C@@H](N)Cc1c[nH]cn1)[C@@H](C)O)C(C)C)C(=O)N[C@@H](C)C(=O)N[C@@](C)(Cc1ccccc1)C(=O)N[C@H](C(=O)N[C@H](C(=O)N[C@@](C)(CCCCN)C(=O)NCC(=O)NCC(N)=O)C(C)C)C(C)C [compound 141] | 5 pM |  |  |  |  | 41 pM | 44.7 pM | 36.7 pM | 8.7 pM | 6.9 pM | ≥ 27 nM | ≥ 27 nM | ≥ 27 nM | ≥ 27 nM |
| CCCCCCCCCCCCCCCC(=O)N[C@@H](CCC(=O)NCCCC[C@H](NC(=O)[C@@H](NC(=O)[C@](C)(Cc1ccccc1)NC(=O)[C@H](CCC(=O)O)NC(=O)[C@](C)(CCCCN)NC(=O)[C@H](C)NC(=O)[C@H](C)NC(=O)[C@H](CCC(=O)O)NC(=O)CNC(=O)[C@H](CCC(=O)O)NC(=O)[C@H](CC(C)C)NC(=O)[C@](C)(Cc1ccccc1)NC(=O)[C@H](CO)NC(=O)[C@](C)(CO)NC(=O)[C@@H](NC(=O)[C@H](CC(=O)O)NC(=O)[C@H](CO)NC(=O)[C@@H](NC(=O)[C@](C)(Cc1ccccc1)NC(=O)[C@H](CO)NC(=O)CNC(=O)[C@H](CCC(=O)O)NC(=O)C(C)(C)NC(=O)[C@@H](N)Cc1c[nH]cn1)[C@@H](C)O)C(C)C)[C@@H](C)CC)C(=O)N[C@@](C)(Cc1ccccc1)C(=O)N[C@H](C(=O)N[C@H](C(=O)N[C@@](C)(CCCCN)C(=O)NCC(=O)NCC(N)=O)C(C)C)C(C)C)C(=O)O [compound 76] (H-H[Aib]EGS[αMeF]TSDV[αMeS]S[αMeF]LEGEAA[αMeK]E[αMeF]IK([γGlu-Palmitoyl])[αMeF]VV[αMeK]GG-NH2; N-terminus assumed) | 6 pM | ≥ 27 nM | ≥ 27 nM | ≥ 27 nM | ≥ 27 nM | 429 pM | 326 pM | 531 pM | 8.4 pM | 7.2 pM |  |  |  |  |
| CCCCCCCCCCCC(=O)NCCOCCOCC(=O)NCCOCCOCC(=O)NCCOCCOCC(=O)NCCCC[C@H](NC(=O)[C@H](C)NC(=O)[C@H](C)NC(=O)[C@H](CCC(=O)O)NC(=O)CNC(=O)[C@H](CCC(=O)O)NC(=O)[C@H](CC(C)C)NC(=O)[C@](C)(Cc1ccccc1)NC(=O)[C@H](CO)NC(=O)[C@](C)(CO)NC(=O)[C@@H](NC(=O)[C@H](CC(=O)O)NC(=O)[C@H](CO)NC(=O)[C@@H](NC(=O)[C@](C)(Cc1ccccc1)NC(=O)[C@H](CO)NC(=O)CNC(=O)[C@H](CCC(=O)O)NC(=O)C(C)(C)NC(=O)[C@@H](N)Cc1c[nH]cn1)[C@@H](C)O)C(C)C)C(=O)N[C@@H](CCC(=O)O)C(=O)N[C@@](C)(Cc1ccccc1)C(=O)N[C@H](C(=O)N[C@@H](C)C(=O)N[C@@](C)(Cc1ccccc1)C(=O)N[C@H](C(=O)N[C@H](C(=O)N[C@@](C)(CCCCN)C(=O)NCC(=O)NCC(N)=O)C(C)C)C(C)C)[C@@H](C)CC [compound 136] | 2.5 pM | ≥ 26 nM | ≥ 26 nM | ≥ 26 nM | ≥ 26 nM | 37 pM | 52.6 pM | 21.5 pM | 3.5 pM | 3 pM |  |  |  |  |
